Results as given in patent US20240358829A1, “Lymphocyte Population and Methods for Producing Same” (AVM Biotechnology, LLC, priority 2021, published 2024).
Entries after “also recorded” stand apart in the source; their conditions may differ. Read-outs that look alike come from different tables or passages of the source.

How the values were obtained:
[1] = system: mouse whole blood and splenocytes; assay: Ex vivo/in vitro dexamethasone concentration-response curve
[2] = system: AVM-NKT cells (CD3highCD49b+); assay type: in vivo, mouse; conditions: for induction of AVM-NKT cells by comparators: naïve mice, standard Cy/Flu chemotherapy or methylprednisone
Source text: Mice were anesthetized with isoflurane gas.

[3] = system: human AVM-NKT cells (human CD56+ cells); assay: Humanized mice orally dosed with DSP (Example 8); assay type: in vivo, mouse; conditions: oral HED 18-45 mg/kg, 24-48 hours later
Experimental: BRGSF humanized mice on a Balb/c background from Genoway generated by transplanting human umbilical cord blood CD34+ stem cells into irradiated mice that lack mouse B and T lymphocytes and NK cells but have a functional mouse complement system are orally dosed with HED 18-45 mg/kg DSP.
NCG mice are humanized by adoptive transfer using human umbilical cord blood-derived CD34+ stem cells, following myeloablation treatment. NCG mice from 4 donors (n=2 per donor) are orally dosed with HED 18-45 mg/kg DSP.
huNOG EXL from Taconic have an average of 54% of CD45 cells positive for human CD45. Six huNOG EXL humanized immune system mice from 3 donors (n=2 per donor) are orally dosed with HED 18-45 mg/kg DSP.

[4] = system: peripheral blood lymphocytes; assay: Lymphodepletion study in naïve mice (complete blood count, flow cytometry)
Experimental: For initial lymphodepletion studies, naïve C57Bl/6 mice were treated with 18 mg/kg HED DP by oral gavage. Male C57BL/6 mice were obtained from Taconic Bioscience (Germantown, NY) and acclimated to laboratory conditions for at least one week. […] Each dosed timepoint group was accompanied by a placebo group of the same age and condition according to Table 3. […] When mice reached study timepoint, they were euthanized as follows. Mice were anesthetized with isoflurane gas. Once anesthetized, blood was drawn via cardiac puncture and place immediately in heparin-lined microtubes. 10 mL of 5 U/mL of Heparin/PBS was used for infused by slow push for retrograde perfusion via the abdominal aorta to flush out all remaining blood from the vasculature. Subsequently, 250 μL of blood was transferred to a lavender-topped EDTA-lined microtube and transported to by Lynette Brown at Flow Contract Site Labs (Bothell, WA) for analysis by flow cytometry. The remaining blood was sent to Phoenix Labs (Mukilteo, WA) for Complete Blood Counts and Clinical Chemistries

[5] = system: A20 cells; assay: A20 cells treated with high dose dexamethasone in vitro; assay type: cell-based, mouse; conditions: 72 hours after high dose dexamethasone treatment in vitro
[6] = system: CD56+γδTCR+iTCR+ cells; assay: AVM0703 R/R NHL clinical trial, whole blood flow cytometry; assay type: in vivo, human; conditions: listed as DP
Experimental: FIG. 15. 101-001 size (FSC) and complexity (SSC) scattergram of AVM_NKT cells. […] Blood was stained with panel antibodies based for 15 minutes in the dark at Room Temperature. RBC lysis was performed by addition of 1 mL of 1×BD FACS Lysing Solution (BD Bioscience), diluted with MilliQ water, for 10 minutes in the dark at Room Temperature. Samples were washed with 2 mL 1×DPBS CMF (Gibco) and resuspended in 300 μL of 1×DPBS CMF before 5 μL of 7AAD (Biolegend) was added to each sample for live/dead cell determination and incubated for 5 minutes in the dark at Room Temperature. 250 μL of sample were taken up for acquisition on Macsquant 16 Flow Cytometer (Miltenyi, Serial #40150). Live white blood cells were gated for CD56+ cells co-expressing gamma delta TCR and the invariant TCR and labelled red in the forward versus side scattergram. Red-labelled cells fall within the forward versus side scattergrams where large granular cells such as neutrophils and large granular lymphocytes are known to fall.
For characterisation of the induced/mobilized population of NKT-like cells (AVM-NKT) in humans, whole blood from human subjects was drawn in K2 EDTA Vacutainer tube (367862, BD Biosciences, NJ) and shipped to AVM Biotechnology at room temperature. 100 μl of whole blood was stained with the following antibodies: CD45 AF700 (2D1), CD16 APC (3G8), INKT PECy7 (6B11), CD8 PE (SK1), CD14 FITC (M5E2), CD56 BV650 (5.1H11), γδTCR BV510 (B1), CD19 BV421 (HIB19), NKp44 APC (P44-8) (all from Biolegend, San Diego, CA) and CD3 APCVio770 (BW264/56), (Miltenyi Biotec, San Jose, CA), 7-AAD, (Biolegend, San Diego CA) was included to distinguish the live and dead cells.

[7] = system: A20 B cell lymphoma; conditions: 18 mg/kg HED
Experimental: FIG. 10B. […] Mice were inoculated with A20 lymphoma 2×10^6 cells in 100 μL of PBS mixed with 100 μL of chilled Matrigel into their flank. Three, 24 and 48 hours later mice were euthanized and tumors, blood, bone marrow and thymus were taken and made into single cell suspensions for flow cytometry detection of live A20 cells.

[8] = system: R/R NHL; assay: AVM0703 R/R NHL clinical trial, clinical and PET/CT response, survival; assay type: in vivo, human; conditions: patient 108-004, 12 mg/kg; listed as DP
[9] = in vivo; cited from earlier work

Compound: C[C@@H]1C[C@H]2[C@@H]3CCC4=CC(=O)C=C[C@]4(C)[C@@]3(F)[C@@H](O)C[C@]2(C)[C@@]1(O)C(=O)CO [dexamethasone base]
- human equivalent dose giving an in vivo peak blood concentration of 100 uM [1]: ~2.8 mg/kg
- response of RBCs ([1]; ex vivo, any concentration (data not shown)): no response
- concentration above which apoptosis decreases (biphasic curve) ([1]; isolated mouse splenocytes and whole blood, 6 hours incubation): above 100 uM
- induction of AVM-NKT cells, dose escalation ([2]; 15 mg/kg HED): particularly robust production
- induction of AVM-NKT cells, dose escalation ([2]; 6+6 mg/kg HED: 6 mg/kg at time 0 and 6 mg/kg 24 hours later): particularly robust production
- induction of AVM-NKT cells, dose escalation ([2]; single dose between 6-12 mg/kg HED): can induce AVM-NKT cells

Compound: C[C@@H]1C[C@H]2[C@@H]3CCC4=CC(=O)C=C[C@]4(C)[C@@]3(F)[C@@H](O)C[C@]2(C)[C@@]1(O)C(=O)COP(=O)(O)O [DSP, Dexamethasone sodium phosphate]
- cell population corresponding to AVM-NKT cells ([3]; BRGSF humanized mice): can be observed
- cells corresponding to AVM-NKT cells, % of total splenocytes ([3]; HuCD34-NCG mice): 0.2-3%
- cells corresponding to AVM-NKT cells, % of total splenocytes ([3]; huNOG EXL mice): 0.2-3%

Compound: cyclophosphamide/fludarabine [Cy/Flu]
- induction of AVM-NKT cells by comparators [2]: not induced
- induction of AVM-NKT cells by comparators ([2]; listed as Cyclophosphamide/fludarabine): does not induce
- Total NKT cell numbers ([4]; 13 mg/kg HED cyclophosphamide and 0.8 mg/kg HED fludarabine, 48 hours): no such increase

Compound: C[C@@H]1C[C@H]2[C@@H]3CCC4=CC(=O)C=C[C@]4(C)[C@@]3(F)[C@@H](O)C[C@]2(C)[C@@]1(O)C(=O)CO [dexamethasone]
- apoptosis of A20 cells [5]: about 30%
- time to induction of AVM-NKT cells in the spleen ([2]; normal mice, after dexamethasone dosing): ≤ 48 h
- platelet numbers ([4]; 18 mg/kg HED DP, 18 mg/kg): spared; also recorded: does not affect
- number of live hematopoietic stem cells ([4]; 18 mg/kg HED DP, 6 hours to 35 days, 18 mg/kg): spared or increased; also recorded: does not significantly alter
- Basophils ([4]; high-dose dexamethasone): reduced only at the 6 hour time point
- MSCs ([4]; high-dose dexamethasone): spared or increased
- RBCs ([4]; high-dose dexamethasone): spared
- eosinophils ([4]; high-dose dexamethasone): reduced only at the 24 and 48 hour time points

Compound: C[C@@H]1C[C@H]2[C@@H]3CCC4=CC(=O)C=C[C@]4(C)[C@@]3(F)[C@@H](O)C[C@]2(C)[C@@]1(O)C(=O)COP(=O)(O)O [dexamethasone phosphate, Dexamethasone phosphate, reference compound]
- CD56+ γδTCR+ iTCR+ cells/uL ([6]; patient 103-005, 9 mg/kg, 1 hour post-infusion): 22 cells/uL
- CD56+γδTCR+invTCR+ cells in blood ([6]; patient 108-004, 12 mg/kg, one hour, 3 days or 14 days after infusion (pre-infusion 0.09%, 4.6 cells/uL)): no evidence
- time of maximal ablation of A20 lymphoma implanted in the flank [7]: ≤ 3 h
- time of maximal eradication of A20 metastasis to blood and thymus [7]: 24 h
- time of maximal eradication of A20 metastasis to bone marrow [7]: 48 h
- objective beneficial response (PET/CT, clinical chemistries, CBCs or clinical symptoms) [8]: did not have a clinical response

Compound: methylprednisone
- induction of AVM-NKT cells by comparators [2]: not induced

Compound: C[C@]12C=CC(=O)C=C1CC[C@@H]1[C@@H]2C(=O)C[C@@]2(C)[C@H]1CC[C@]2(O)C(=O)CO [prednisone]
- biologic half-life [9]: about 20 hours
